Reference: patent publication US20260034044A1, “A PRESERVATIVE COMPOSITION” (AnalytiCon Discovery - Zweigniederlassung der BRAIN Biotech …, priority 2022, published 2026)
≈ marks a conversion by molar mass, not a printed value.

Assays:
Type in all cases: cell-based
Bacillus cereus DSM4490 = test: Antimicrobial activity (MIC); settings: potato dextrose broth pH 3.8, visual evaluation, read-out: Minimal Inhibitory Concentration (MIC)
[1] = system: Botrytis cinerea DSM 5145; test: Antimicrobial activity (MIC); settings: DSM5145, potato dextrose broth pH 3.8, visual evaluation, read-out: Minimal Inhibitory Concentration (MIC)
[2] = system: Malassezia furfur DSM 6170; test: Antimicrobial activity (MIC); settings: DSM6170, potato dextrose broth pH 3.8, visual evaluation, read-out: Minimal Inhibitory Concentration (MIC)
[3] = system: Saccharomyces cerevisiae DSM 2548; test: Antimicrobial activity (MIC); settings: DSM2548, potato dextrose broth pH 3.8, visual evaluation, read-out: Minimal Inhibitory Concentration (MIC)
[4] = system: Leuconostoc mesenteroides ssp. mesenteroides DSM 20343; test: Antimicrobial activity (MIC); settings: DSM20343, potato dextrose broth pH 3.8, visual evaluation, read-out: Minimal Inhibitory Concentration (MIC)
[5] = system: Zygosaccharomyces bailii DSM 70834; test: Antimicrobial activity (MIC); settings: DSM70834, potato dextrose broth pH 3.8, visual evaluation, read-out: Minimal Inhibitory Concentration (MIC)
[6] = system: Corynebacterium xerosis DSM 20743; test: Antimicrobial activity (MIC); settings: DSM20743, potato dextrose broth pH 3.8, visual evaluation, read-out: Minimal Inhibitory Concentration (MIC)
[7] = system: Byssochlamys fulva DSM 1808; test: Antimicrobial activity (MIC); settings: Paecilomyces fulvus, DSM1808, potato dextrose broth pH 3.8, visual evaluation, read-out: Minimal Inhibitory Concentration (MIC)
[8] = system: Cutibacterium acnes DSM 1897; test: Antimicrobial activity (MIC); settings: DSM1897, potato dextrose broth pH 3.8, visual evaluation, read-out: Minimal Inhibitory Concentration (MIC)
[9] = system: Clostridium sporogenes ATCC 19404; test: Antimicrobial activity (MIC); settings: ATCC19404, potato dextrose broth pH 3.8, visual evaluation, read-out: Minimal Inhibitory Concentration (MIC)
Protocol: Compounds are dissolved at a concentration of 20 mg/ml using 100% DMSO. • Preculture: yeast and bacteria are plated on potato dextrose agar, resuspended in potato dextrose broth and CFU via OD measurement determined; adjusting CFU of the strain in PDB pH 3.8. • Preculture: for mycel forming fungi spores were directly used after thawing of cryopreserved stocks of known titre. • Final titre used for the assay: Yeast strains 5*10^3 CFU/ml, Bacteria 1*10^6 CFU/ml, Fungi (spores) 5*10^4 CFU/ml • Potato dextrose broth pH 3.8 was used as assay matrix • 500 ppm (0.05%) of the compounds were screened (final DMSO 2.5% (v/v)) • Volume: 100 μl in 96-well format • Positive controls: potassium sorbate, sodium benzoate & triclosan • 28° C. to 30° C., static incubation • Incubation time depending on spoilage organism between 2 and 8 days • Visual evaluation (per eye, for fungi with binocular magnification) Antimicrobial activities are reported in Table 1.

[10] = system: Bacillus licheniformis DSM 13; test: Antimicrobial activity (MIC); settings: DSM13, potato dextrose broth pH 3.8, visual evaluation, read-out: Minimal Inhibitory Concentration (MIC)
[11] = system: Campylobacter jejuni DSM 4688; test: Antimicrobial activity (MIC); settings: DSM4688, potato dextrose broth pH 3.8, visual evaluation, read-out: Minimal Inhibitory Concentration (MIC)
[12] = system: Porphyromonas gingivalis DSM 20709; test: Antimicrobial activity (MIC); settings: DSM20709, potato dextrose broth pH 3.8, visual evaluation, read-out: Minimal Inhibitory Concentration (MIC)
[13] = system: Candida parapsilosis ATCC 20384; test: Antimicrobial activity (MIC); settings: Lodderomyces parapsilosis, ATCC20384, potato dextrose broth pH 3.8, visual evaluation, read-out: Minimal Inhibitory Concentration (MIC)
[14] = system: Candida albicans ATCC10231; test: Antimicrobial activity (MIC); settings: potato dextrose broth pH 3.8, visual evaluation, read-out: Minimal Inhibitory Concentration (MIC)
[15] = system: Clostridium perfringens DSM 756; test: microbe, parasite or virus in culture; settings: DSM756, pH 3.8, read-out: Minimal Inhibitory Concentration (MIC)
[16] = system: Brettanomyces naardenensis CBS 6115; test: Antimicrobial activity (MIC); settings: CBS6115, potato dextrose broth pH 3.8, visual evaluation, read-out: Minimal Inhibitory Concentration (MIC)
[17] = system: Enterococcus faecalis ATCC 7080; test: Antimicrobial activity (MIC); settings: ATCC7080, potato dextrose broth pH 3.8, visual evaluation, read-out: Minimal Inhibitory Concentration (MIC)
[18] = system: Lactobacillus plantarum ssp. plantarum DSM 20174; test: Antimicrobial activity (MIC); settings: Lactiplantibacillus plantarum, DSM20174, potato dextrose broth pH 3.8, visual evaluation, read-out: Minimal Inhibitory Concentration (MIC)
[19] = system: Fusobacterium nucleatum subsp. vincentii DSM 19507; test: Antimicrobial activity (MIC); settings: DSM19507, potato dextrose broth pH 3.8, visual evaluation, read-out: Minimal Inhibitory Concentration (MIC)
[20] = system: Enterobacter cloacae DSM 6234; test: Antimicrobial activity (MIC); settings: DSM6234, potato dextrose broth pH 3.8, visual evaluation, read-out: Minimal Inhibitory Concentration (MIC)
[21] = system: Penicillium expansum DSM 62841; test: Antimicrobial activity (MIC); settings: DSM62841, potato dextrose broth pH 3.8, visual evaluation, read-out: Minimal Inhibitory Concentration (MIC)
[22] = system: Aspergillus brasiliensis DSM 1988; test: Antimicrobial activity (MIC); settings: DSM1988, potato dextrose broth pH 3.8, visual evaluation, read-out: Minimal Inhibitory Concentration (MIC)
[23] = system: Zygosaccharomyces rouxii DSM 7525; test: Antimicrobial activity (MIC); settings: DSM7525, potato dextrose broth pH 3.8, visual evaluation, read-out: Minimal Inhibitory Concentration (MIC)
[24] = system: Staphylococcus aureus DSM 2569; test: Antimicrobial activity (MIC); settings: DSM2569, potato dextrose broth pH 3.8, visual evaluation, read-out: Minimal Inhibitory Concentration (MIC)

Compound | MIC (Bacillus cereus DSM4490) [µg/mL] | MIC [1] [µg/mL] | MIC [2] [µg/mL] | MIC [3] [µg/mL] | MIC [4] [µg/mL] | MIC [5] [µg/mL] | MIC [6] [µg/mL] | MIC [7] [µg/mL] | MIC [8] [µg/mL] | MIC [9] [µg/mL] | MIC [10] [µg/mL] | MIC [11] [µg/mL] | MIC [12] [µg/mL] | MIC [13] [µg/mL] | MIC [14] [µg/mL] | MIC [15] [µg/mL] | MIC [16] [µg/mL] | MIC [17] [µg/mL] | MIC [18] [µg/mL] | MIC [19] [µg/mL] | other results
C[C@H]1CC[C@@]2(OC1)O[C@H]1CC3C4CC[C@H]5C[C@@H](O[C@@H]6O[C@H](CO)[C@H](O[C@@H]7O[C@H](CO)[C@@H](O)[C@H](O[C@@H]8OC[C@@H](O)[C@H](O)[C@H]8O)[C@H]7O[C@@H]7O[C@H](CO)[C@@H](O)[C@H](O)[C@H]7O)[C@H](O)[C@H]6O)[C@H](O)C[C@]5(C)C4=CC(=O)[C@]3(C)[C@H]1[C@@H]2C (stereo partly shown) [A] | > 80 | > 80 | > 80 | > 80 | > 80 | > 80 | > 80 | > 80 | > 80 | 80 (≈ 75.2 µM) | > 80 | > 80 | > 80 | > 80 | > 80 | > 80 | > 80 | > 80 | 40 (≈ 37.6 µM) | 80 (≈ 75.2 µM) | MIC [20]: > 80 µg/mL; MIC [21]: > 500 µg/mL; MIC [22]: > 80 µg/mL; MIC [23]: 500 µg/mL (≈ 470 µM); MIC [24]: > 80 µg/mL
C[C@@H]1CC[C@@]2(OC1)O[C@H]1CC3C4CC=C5CC(O[C@@H]6O[C@H](CO)[C@@H](O[C@@H]7O[C@@H](C)[C@H](O[C@@H]8O[C@@H](C)[C@H](O)[C@@H](O)[C@H]8O)[C@@H](O)[C@H]7O)[C@H](O)[C@H]6O[C@@H]6O[C@@H](C)[C@H](O)[C@@H](O)[C@H]6O)CC[C@]5(C)C4CC[C@]3(C)[C@@]1(O)[C@@H]2C (stereo partly shown) [B] | > 80 | > 80 | 80 (≈ 77.6 µM) | > 80 | > 80 | > 80 | > 80 | > 80 | > 80 | 80 (≈ 77.6 µM) | > 80 | > 80 | > 80 | > 80 | > 80 | > 80 | > 80 | > 80 | 400 (≈ 388 µM) | > 80 | MIC [20]: > 80 µg/mL; MIC [21]: > 500 µg/mL; MIC [22]: > 80 µg/mL; MIC [23]: 500 µg/mL (≈ 485 µM); MIC [24]: > 80 µg/mL
CC1CC[C@@]2(OC1)O[C@H]1CC3C4CC=C5C[C@@H](O[C@@H]6O[C@H](CO)[C@@H](O[C@@H]7O[C@@H](C)[C@H](O)[C@@H](O)[C@H]7O)[C@H](O)[C@H]6O[C@@H]6O[C@@H](C)[C@H](O)[C@@H](O)[C@H]6O)CC[C@]5(C)C4CC[C@]3(C)[C@@]1(O)[C@@H]2C (stereo partly shown) [C] | > 80 | > 80 | 80 (≈ 90.4 µM) | > 80 | > 80 | > 80 | > 80 | > 80 | > 80 | 80 (≈ 90.4 µM) | > 80 | > 80 | > 80 | > 80 | > 80 | > 80 | > 80 | > 80 | 400 (≈ 452 µM) | > 80 | MIC [20]: > 80 µg/mL; MIC [21]: > 500 µg/mL; MIC [22]: > 80 µg/mL; MIC [23]: 500 µg/mL (≈ 565 µM); MIC [24]: > 80 µg/mL
C[C@H]1CC[C@@]2(OC1)O[C@H]1CC3C4CC[C@H]5C[C@@H](O[C@@H]6O[C@H](CO)[C@H](O[C@@H]7O[C@H](CO)[C@@H](O)[C@H](O)[C@H]7O[C@@H]7O[C@H](CO)[C@@H](O)[C@H](O)[C@H]7O)[C@H](O)[C@H]6O)[C@H](O)C[C@]5(C)C4=CC(=O)[C@]3(C)[C@H]1[C@@H]2C (stereo partly shown) [D] | > 80 | > 80 | > 80 | > 80 | > 80 | > 80 | > 80 | > 80 | > 80 | 80 (≈ 85.9 µM) | > 80 | > 80 | > 80 | > 80 | > 80 | > 80 | > 80 | > 80 | 40 (≈ 43 µM) | 80 (≈ 85.9 µM) | MIC [20]: > 80 µg/mL; MIC [21]: > 500 µg/mL; MIC [22]: > 80 µg/mL; MIC [23]: 500 µg/mL (≈ 537 µM); MIC [24]: > 80 µg/mL
